Literature values as cited in patent US20260258132A1, “TREATMENT OF LUNG CANCER WITH ANTI-PD-1 AND CHEMOTHERAPY” (BeOne Medicines I GmbH, priority 2023, published 2026).

Test system: ES-SCLC
Conditions: cited from earlier work; for RMST analysis: difference in OS in prior studies: versus placebo plus chemotherapy

pembrolizumab plus chemotherapy: pembrolizumab (humanized IgG4 anti-PD-1 antibody) plus chemotherapy, first-line ES-SCLC, previous study
median OS in the previous study (first-line treatment for ES-SCLC): 10.8 months | OS HR in the previous study (pembrolizumab arm versus placebo arm, 95% CI 0.64-0.98): 0.80 | RMST analysis: difference in OS in prior studies: 1.2 month

B1: adebrelimab plus chemotherapy: adebrelimab plus chemotherapy, prior study compared by RMST of OS (antibody, chains of the INN, looked up, V domains shown)
VH: QVQLVQSGAEVKKPGASVKVSCKASGYTFTSYWMHWVRQAPGQGLEWMGRIGPNSGFTSYNEKFKNRVTMTRDTSTSTVYMELSSLRSEDTAVYYCARGGSSYDYFDYWGQGTTVTVSS
VL: DIVLTQSPASLAVSPGQRATITCRASESVSIHGTHLMHWYQQKPGQPPKLLIYAASNLESGVPARFSGSGSGTDFTLTINPVEAEDTANYYCQQSFEDPLTFGQGTKLEIK
modifications: plus chemotherapy
notes: adebrelimab plus chemotherapy, prior study compared by RMST of OS
RMST analysis: difference in OS in prior studies: 2.3 month
